The text below walks through data of PMC5589637, “New perspectives of cobalt tris(bipyridine) system: anti-cancer effect and its collateral sensitivity towards multidrug-resistant (MDR) cancers” (Oncotarget, 2017).

The subject of one data set is H1299 lung cancer cells. The data set is described as follows: Cell invasion assay (ECMatrix chamber). It is filed as cell-based, human. Conditions: H1299, 72 h, sub-lethal doses, OD 560 nm. The protocol: The H1299 cancer cell invasion assay was performed in a Cell Invasion Chamber, a 24-well tissue culture plate with cell culture inserts that contain an 8 μm pore size polycarbonate membrane over a thin layer of dried ECMatrix^TM (CHEMICON). H1299 cells (15000 cells/well) were re-suspended in serum-free medium and incubated in an invasion chamber insert with different concentrations of cobalt complex 2 for 72 hours, while the lower chamber contained medium with 10% FBS. The cells invaded through the ECM layer to the bottom of the polycarbonate membrane were labelled with Cell Stain provided in the kit for 20 min at room temperature. The non-invading cells were gently removed from the interior of the inserts by using a cotton-tipped swab. The number of invaded cells was counted through the microscope and quantified by dissolving stained cells in 10% acetic acid (200 μL/well). The colorimetric reading of the solute mixture was determined by spectrophotometer at OD 560 nm.

For the next data set, the system named is Atg7^+/+ wild-type MEFs. Kind of data set: MTT cytotoxicity, Atg7 wild-type MEFs. It counts as cell-based, mouse. Conditions: 72 h. The text has this:
All cells were obtained from the American Type Culture Collection (Rockville, MD, USA) unless otherwise specified. Immortalized wild-type and Atg7-deficient mouse embryonic fibroblasts (MEFs) were kindly provided by Professor Masaaki Komatsu (Juntendo University, School of Medicine, Japan). Taxol-resistant types of MCF-7, HCT-8, A549 cancers cells and cisplatin-resistant SGC7901 cancer cells were purchased from KeyGEN BioTECH, China. Cisplatin-sensitive or –resistant A2780, OV2008 and C13 cancer cells were kindly provided by Prof. Benjamin Tsang (Department of Obstetrics and Gynecology and Department of Cellular and Molecular Medicine, University of Ottawa, Canada). HCT116 p53^+/+ and p53^−/− isogenic human colon cancer cells were kindly provided by Professor Bert Vogelstein (Ludwig Center at Johns Hopkins, Howard Hughes Medical Institute, USA). […]
All tested compounds were dissolved in DMSO at a final concentration of 50 mmol/L and stored at −20°C before use. Cytotoxicity was assessed by using the 3-(4,5-dimethylthiazol-2-yl)-2, 5-diphenyltetrazolium bromide (MTT) (5.0 mg/ml) assay as previously described. […] A570 nm was then determined in each well on the next day. The percentage of cell viability was calculated using the following formula: Cell viability (%) = Atreated/Acontrol × 100. […]

Data set [1] deals with A2780 cisplatin-resistant cancer cells. The data set is described as follows: MTT cytotoxicity, cisplatin-resistant A2780. It counts as cell-based. An excerpt: (§1) All cells were obtained from the American Type Culture Collection (Rockville, MD, USA) unless otherwise specified. Immortalized wild-type and Atg7-deficient mouse embryonic fibroblasts (MEFs) were kindly provided by Professor Masaaki Komatsu (Juntendo University, School of Medicine, Japan). Taxol-resistant types of MCF-7, HCT-8, A549 cancers cells and cisplatin-resistant SGC7901 cancer cells were purchased from KeyGEN BioTECH, China. Cisplatin-sensitive or –resistant A2780, OV2008 and C13 cancer cells were kindly provided by Prof. Benjamin Tsang (Department of Obstetrics and Gynecology and Department of Cellular and Molecular Medicine, University of Ottawa, Canada). HCT116 p53^+/+ and p53^−/− isogenic human colon cancer cells were kindly provided by Professor Bert Vogelstein (Ludwig Center at Johns Hopkins, Howard Hughes Medical Institute, USA). All media were supplemented with 10% fetal bovine serum and antibiotics penicillin (50 U/ml) and streptomycin (50 μg/ml; Invitrogen, Paisley, Scotland, UK). All cell cultures were incubated at 37°C in a 5% humidified CO2 incubator.
(§2) All tested compounds were dissolved in DMSO at a final concentration of 50 mmol/L and stored at −20°C before use. Cytotoxicity was assessed by using the 3-(4,5-dimethylthiazol-2-yl)-2, 5-diphenyltetrazolium bromide (MTT) (5.0 mg/ml) assay as previously described. Briefly, 4×10^3 cells per well were seeded in 96-well plates before drug treatments. After overnight culture, the cells were then exposed to different concentrations of selected compounds ([…]) for 72 hours. Cells without drug treatment were used as control. Subsequently, MTT (10 μL) solution was added to each well and incubated at 37°C for 4 hours followed by the addition of 100 μL solubilization buffer (10%SDS in 0.01 mol/L HCl) and overnight incubation. A570 nm was then determined in each well on the next day. The percentage of cell viability was calculated using the following formula: Cell viability (%) = Atreated/Acontrol × 100. Data were obtained from three independent experiments.

Data set [2] relates to HeLa cancer cells. The data set is described as follows: Western blot of autophagy markers. It is filed as cell-based. As for the experimental part: Western blot analysis was carried out following standard methods. Cells were lysed with RIPA lysis buffer with protease and phosphatase inhibitor cocktails. Protein concentrations were determined using the Bio-Rad protein assay (Bio-Rad Laboratories, Inc., Hercules, CA, USA). After electrophoresis, the proteins from SDS/PAGE were electro-transferred to a Hybond enhanced chemiluminescence nitrocellulose membrane (Amersham Biosciences, NJ, USA), which was then blocked with 5% dried milk for 1 hour. After washing, the blot was incubated with the indicated primary antibodies overnight at 4°C. Detection was performed using appropriated HRP-conjugated secondary antibodies for 1 hour at RT followed by chemiluminescence (Invitrogen).
Background: Immunoblotting shows a protein as a band on a membrane.

For data set [3], the system named is HCT116 p53^-/- colon cancer cells. Kind of data set: MTT cytotoxicity, HCT116 p53-/-. It is filed as cell-based, human.
Source text: as §1, §2

Data set [4] concerns HCT116 p53^+/+ colon cancer cells. The data set is described as follows: MTT cytotoxicity, HCT116 p53+/+. It counts as cell-based, human. Conditions: 72 h.
Source text: as §1, §2

The test system of data set [5] is LLC-1 Lewis lung cancer xenograft. Kind of data set: LLC-1 xenograft tumor model. The following applies: LLC-1 bearing C57BL/6 mice, 10 days. It counts as in vivo. The protocol:
The mice were maintained under specific pathogen-free condition in a 12-h light-dark cycle. 8-week-old C57BL/6 mice (female body weight: 22 ± 4 g and male body weight 25 ± 4g) were purchased from The Chinese University of Hong Kong. The animals were housed in a 12 hours light/dark cycles and temperature-controlled room and given ad libitum access to food and water. All of the experiments were carried out in accordance to the “Institutional Animal Care and User Committee guidelines” of the Macau University of Science and Technology. C57BL/6 were randomly grouped (10 mice per group) and intraperitoneal injected with 40 mg/kg or 80 mg/kg of cobalt complex 2 or 40 mg/kg or 80 mg/kg of water-soluble form of cobalt complex 2. Xenograft mouse model was constructed as previously described. LLC-1 Lewis lung cancer cells (1 × 10^6 cells) were subcutaneously injected in the right dorsal region of the mice. After tumors grew to about 100 mm^3, the mice were randomly divided into 3 groups: 1) the control group, 2) 40 or 80 mg/kg cobalt complex 2 group, and 3) 40 mg/kg cobalt complex 2W (water soluble form). […] The body weight of each mouse was recorded with the tumor volume determined by Vernier caliper using the formula of L × W^2 × 0.52, where Lis the longest diameter of tumor and W is the shortest diameter of tumor. […]

For data set [6], the system named is HCT-8 taxol-resistant cancer cells. Kind of data set: MTT cytotoxicity, taxol-resistant HCT-8. It counts as cell-based.
Source text: as §1, §2

Data set [7] relates to HCT-8 taxol-sensitive cancer cells. Kind of data set: MTT cytotoxicity, taxol-sensitive HCT-8. It is filed as cell-based. The following applies: 72 h.
Source text: as §1, §2

For data set [8], the system named is HeLa cancer cells. Kind of data set: Flow cytometry cell-cycle analysis. The following applies: 24 h, propidium iodide flow cytometry. It is filed as cell-based. The text has this:
Cobalt complex 2-treated cells were harvested and analysed by flow cytometry using propidium iodide staining (BD Biosciences, San Jose, CA, USA) according to the manufacturer instructions. Cell population in different phase of cell cycle were quantitatively counted by a flow cytometer (BD FACSAria III, San Jose, CA, USA).
(Flow cytometry measures light scatter and fluorescence of single cells or particles in a stream.)

For `Cc1ccnc(-c2cc(C)ccn2)c1.Cc1ccnc(-c2cc(C)ccn2)c1.Cc1ccnc(-c2cc(C)ccn2)c1.F[P-](F)(F)(F)(F)F.F[P-](F)(F)(F)(F)F.F[P-](F)(F)(F)(F)F.[Co+3]` [complex 2, [Co^III(4,4’-Me2-bpy)3](PF6)3], the “cell invasion (absorbance signal of invaded cells)” value in the data set on H1299 lung cancer cells is “dose-dependently decrease the absorbance signal”. The IC50 with Atg7^+/+ wild-type MEFs was 4.84 µM; in data set [1] (A2780 cisplatin-resistant, MTT, 72 h) it was 10.7 µM; in [3] (HCT116 p53-/-, MTT, 72 h), 9.07 µM; in data set [4], 15.4 µM; in [6] (HCT-8 taxol-resistant, MTT, 72 h), 1.22 µM; in data set [7] it was 3.39 µM. Further, in [1] (cisplatin-resistant over cisplatin-sensitive IC50, A2780), the “Resistant Factor, A2780” value was 0.87. The “protein expression of p62 and P-p70S6K” value with HeLa cancer cells [2] (10μM and 15μM) is on record as “prominently reduced”. Moreover, the LC3-II protein conversion result in the data set with HeLa cancer cells [2] (24 h) is on record as “dose-dependently increased the LC3-II protein conversion”. Further, the “expression of beclin-1 protein” value in the data set on HeLa cancer cells [2] (24 h, vs untreated control) is recorded as “upregulated”. The “Resistant Factor, HCT116 p53-/- vs p53+/+” value in data set [3] (IC50 p53-/- over IC50 p53+/+) is on record as 0.59. The “reduction in tumor volume” value in data set [5] (IP 40 mg/kg/day or 80 mg/kg/day, P < 0.05) is recorded as “up to 50%”. Further, the body weight entry in [5] (IP daily) is “no significant reduction in body weight”. Further, in [6] (IC50 of taxol-resistant cells over IC50 of taxol-sensitive cells, HCT-8), the “Resistant Factor, HCT-8” value was 0.36. Besides, the “effect on cell cycle progression, high concentration” value with HeLa cancer cells [8] (high concentration) was “arrest HeLa cancer cell in S-phase”. Besides, the “effect on cell cycle progression, low concentration” value in the data set on HeLa cancer cells [8] (low concentration) is given as “negligible effect on cell cycle progression”.

By IC50 is commonly meant the midpoint of a concentration-inhibition curve. A low value points to greater potency in that assay.
